In paper PMC12406203 (Journal of Medicinal Chemistry, 2025):
Values joined by “and” are separate entries in the source; they are usually repeats but may differ in a detail not shown here. Equal values may be shown once.

What was measured:
[1] = system: NLK
[2] = system: AXL
[3] = target: T1, hBChE in SH-SY5Y cells (Homo sapiens, UniProt P06276); test: hBChE inhibition assay in SH-SY5Y cells; format: cell-based; conditions: 10 and 1 μM; compared with control ethopropazine
T1 construct: endogenous in cells; host or cells: SH-SY5Y human neuroblastoma cells
Experimental: hBChE activity in live whole SH-SY5Y cells was measured by the modified procedure of Onder and colleagues. Briefly, after centrifugation, the complete medium was removed and cells were suspended in PBS warmed to 37 °C. 50 μL of this suspension was added to a 96-well plate so that each well contained approximately 360,000 cells. 81 μL of 0.5 mM 5,5′-dithiobis (2-nitrobenzoic acid) in 0.1 M potassium phosphate buffer (pH 7.0) was added, followed by 2 μL of DMSO solutions of compounds 94, 95, or ethopropazine (positive control). The reaction was initiated by the addition of 67 μL of 1 mM acetylthiocholine. The total reagent volume in each well was 200 μL. The microplate was covered with a lid to minimize evaporation while absorbance at 412 nm was recorded over a period of 120 min with a 30 s interval on a Tecan Spark microplate reader (Tecan Austria GmbH, Salzburg, Austria) set to 24 °C. Autohydrolysis rates of butyrylthiocholine were measured in wells that contained all reagents + PBS with no cells. The residual activity of hBChE was then calculated by the protocol described above.

[4] = system: PLK1
[5] = system: IKKβ
[6] = system: GSK3B
[7] = system: JNK1
[8] = system: PIK3CG
[9] = system: MEK1
[10] = system: ABL1-nonphosphorylated
[11] = system: ULK2
[12] = Pharmacokinetic study in mice; conditions: for Cmax / MRT / Tmax / k el / Kp / AUC / AUC(0-t) / CL/F / Vd/F: male, CD-1, mouse, ip, 10 mg/kg; for Kp: brain/serum
Experimental: In this study, male CD-1 mice weighing 27–34 g housed in conditions of constant temperature with a 12:12 h light-dark cycle with free access to food and water were used. Both tested and reference compounds were suspended in 1% Tween in water for injection (Polpharma, Poland) and administered intraperitoneally (i.p.). The mice were sacrificed by decapitation under isoflurane anesthesia at different time points following compound administration. Brains were harvested at the same time points. Blood was allowed to clot at room temperature for 20 min, and serum was separated by centrifugation at 8 000g (Eppendorf MiniSpin centrifuge, Germany) for 10 min. All samples were stored at −80 °C until analysis.
The analytical workflow employed a Sciex QTRAP 4500 triple quadrupole mass spectrometer interfaced with an Exion LC AC HPLC system (Danaher Corporation, USA). Chromatographic separation was achieved on an XBridge C18 column (3 × 50 mm, 5 μm; Waters, USA), utilizing a mobile phase composed of acetonitrile and water both containing 0.1% formic acid. The column temperature was maintained at 40 °C, and a gradient elution protocol (Table S10) was implemented to ensure optimal analyte resolution and retention times. Mass spectrometric detection was conducted in unit resolution mode, with ion transitions specified in Table S11. […] Valsartan served as the internal standard and was monitored at m/z 436 → 207 (collision energy = 42 eV). Positive electrospray ionization (ESI+) was employed to enhance detection sensitivity. Ion path parameters (Table S11) were optimized via direct infusion of analyte solutions (7 μL/min) using a syringe pump. The optimized source conditions included an ion spray voltage of 5500 V, a source temperature of 450 °C, curtain gas pressure at 20 psi, and medium collision gas pressure. […] No significant matrix effects or stability concerns were observed during routine sample analysis. Data acquisition and processing were carried out using Analyst software version 1.7.
Serial dilutions were performed to generate working solutions ranging from 0.01 to 20 μg/mL, corresponding to final calibration concentrations of 0.001–2 μg/mL. For calibration curve construction, 5 μL of each working solution was spiked into 45 μL of the relevant biological matrix (serum or brain homogenate) and vortexed for 10 s. Sample preparation involved protein precipitation, in a 1:3 (v/v) ratio, using acetonitrile containing 0.1% formic acid and the internal standard. The mixtures were agitated for 10 min using an IKA Vibrax VXR shaker (Germany), followed by centrifugation at 8000 × g for 5 min (Eppendorf miniSpin, Germany). The resulting supernatants were transferred to chromatographic vials for analysis.
Brain tissues were homogenized in distilled water at a 1:4 (w/v) ratio using an ULTRA-TURRAX T10 basic homogenizer (IKA, Germany). Aliquots of brain homogenate or serum (50 μL) were subjected to protein precipitation in a 1:3 (v/v) ratio with acetonitrile containing 0.1% formic acid and the internal standard. The mixtures were agitated for 10 min using an IKA Vibrax VXR shaker (Germany), followed by centrifugation at 8000 × g for 5 min (Eppendorf miniSpin, Germany). The resulting supernatants were directly transferred to chromatographic vials for analysis. In cases where analyte concentrations in serum exceeded 20 μg/mL, samples were diluted with blank matrix prior to the deproteinization step. The autosampler was maintained at 15 °C, and a 1 μL aliquot was injected onto the analytical column.
Pharmacokinetic parameters were estimated using the noncompartmental analysis (NCA). The maximum concentration (C max) and the time to reach maximum concentration (t max) in serum and brain were obtained directly from the concentration versus time data.

[13] = system: RET
[14] = system: BTK
[15] = target: hAChE (Homo sapiens, UniProt P22303); conditions: for AChE inhibition: at a concentration of 100 μM; for hAChE RA at 100 μM: residual activity at 100 μM, mean ± SD, one experiment in triplicate
Experimental: (§1) The inhibitory potencies of the compounds against the ChEs were determined using the method of Ellman. […] The final content of DMSO was always 1% [v/v]. […] The initial velocities in the presence (v i ) and absence (v 0) of the test compounds were calculated. The inhibitory potencies were expressed as the residual activities, according to RA = (v i – b)/(v 0 – b), where b is the blank value using phosphate buffer without ChEs. For IC50 determinations, at least seven different concentrations for each compound were used. The IC50 values were obtained by plotting the residual ChE activities against the applied inhibitor concentrations, with the experimental data fitted to a four-parameter logistic function (GraphPad Prism 10.0).

[16] = system: TIE2
[17] = system: scopolamine-induced cognitive deficits in mice; test: Novel object recognition task, scopolamine-induced amnesia; format: in vivo; conditions: for efficacy in NOR task: 5 mg/kg i.p., scopolamine model; for preference for the novel object (NOR task): 10 mg/kg i.p., vs mice treated with scopolamine alone
Source text: In the scopolamine model, the PA and NOR tasks were used for dose selection for further testing.
The mice had unlimited access to food and water prior to the experiment. Specified conditions for the maintenance of mice were ensured throughout the experiment, including tree bedding (Transwior, Poland) and cage enrichment (tunnels, nesting material, wooden igloos, etc.). For behavioral tests, the mice were selected randomly; each group consisted of 7–10 mice. […] The procedures for maintenance and treatment of laboratory animals were approved by the first Local Ethics Committee in Krakow (Approval No. 645/2022, 760/2023, and 829/2024 and the treatment of animals was in full accordance with ethical standards laid down in respective Polish and EU regulations (Directive 2010/63/EU).
Scopolamine hydrobromide (Sigma-Aldrich, Poland) at the dose of 1 mg/kg was used to induce learning and memory deficits. For the in vivo tests, scopolamine was prepared in distilled water (Polfa Kutno, Poland) and was administered subcutaneously (s.c.) 30 min before behavioral tests during the acquisition (training) trial of PA and NOR tasks. […] They were administered intraperitoneally (i.p.) 60 min before the acquisition trial of the PA, NOR, and MWM tasks.
The experiment was conducted in opaque black boxes with dimensions of 50 × 50 × 50 cm. The 3 day procedure consists of habituation to the test arena (without any objects) for 10 min on the first day (T0), a training trial (T1), and a testing trial (T2) separated by a 24 h intertrial interval. During T1 (familiarization trial), two identical objects (A and B) were presented in the opposite corners of the arena, approximately 5 cm from its walls. During T2 (recognition trial), one of the objects (B) was replaced by a novel object (C), so that the animals were presented with A (familiar) and C (novel) objects. Both T1 and T2 trials lasted for 10 min, and after each trial, the animals returned to their home cages. White plastic round containers (height 5 cm, diameter 5 cm) attached to the ground with double-sided tape were used as the A, B objects, and green cuboids of similar height were used as object C. The objects were stable enough so that the animals could not displace them. The sequence of presentations and the location of the objects were randomly assigned to each mouse. The animals explored the objects by looking, licking, sniffing, or touching them while sniffing, but not when leaning against, standing, or sitting on the objects. Any mouse exploring the two objects for less than 5 s within the 10 min duration of T1 or T2 was eliminated from the study. An experimenter, blind to the drug treatment, measured the exploration time of the objects.

[18] = target: hBChE (Homo sapiens, UniProt P06276); test: biochemical
Experimental: as §1

[19] = system: LCK
[20] = system: mice (locomotor activity); test: Locomotor activity test; conditions: 10 mg/kg i.p.
Source text: The mice had unlimited access to food and water prior to the experiment. Specified conditions for the maintenance of mice were ensured throughout the experiment, including tree bedding (Transwior, Poland) and cage enrichment (tunnels, nesting material, wooden igloos, etc.). For behavioral tests, the mice were selected randomly; each group consisted of 7–10 mice. […] After in vivo tests, the animals were immediately euthanized, and their tissues were collected and stored for further ex vivo testing.
They were administered intraperitoneally (i.p.) 60 min before the acquisition trial of the PA, NOR, and MWM tasks.
The locomotor activity test was performed using activity cages (40 cm × 40 cm × 30 cm, supplied with IR beam emitters) (Activity Cage 7441, Ugo Basile, Italy) connected to a counter for the recording of light-beam interrupts. […] The animals’ movements (i.e., the number of light-beam crossings) were counted during the next 60 min of the test. Before the experiment, the mice were habituated to activity cages for 15 min.

[21] = system: ERK1
[22] = system: KIT(D816V)
[23] = system: TGFBR1
[24] = system: CSNK1G2
[25] = system: ADCK3
[26] = system: BRAF
[27] = system: PLK3
[28] = system: PDPK1
[29] = system: PIM2
[30] = system: PIM1
[31] = system: JAK3(JH1domain-catalytic)
[32] = system: mice (motor coordination); test: Rotarod test; conditions: 10 mg/kg i.p., mice
Experimental: For behavioral tests, the mice were selected randomly; each group consisted of 7–10 mice.
In the rotarod, locomotor activity, and MWM tests, only one dose effective in the scopolamine model of amnesia was evaluated.
Three days before the rotarod test, the mice were trained on the rotarod apparatus (Rotarod apparatus, May Commat RR0711, Turkey; rod diameter: 2 cm) that was rotated at a fixed speed of 18 rpm. In each training session, the mice were placed on the rotating rod for 3 min with an unlimited number of trials. The proper experiment was performed 24 h after the last training trial. […] Motor impairments in mice were defined as the inability to remain on the rotarod apparatus for 1 min. The results are expressed as the mean time spent on the rotarod.

[33] = system: DYRK1B
[34] = system: JNK3
[35] = system: ABL1(T315I)-phosphorylated
[36] = system: PCTK1
[37] = system: RAF1
[38] = system: SRC
[39] = system: INSR
[40] = hBChE IC50 ± SEM, two independent experiments, each in triplicate
[41] = in vitro hBChE IC50, IC50 expressed as concentration in ng/mL

Chain of hBChE (P06276 29-602): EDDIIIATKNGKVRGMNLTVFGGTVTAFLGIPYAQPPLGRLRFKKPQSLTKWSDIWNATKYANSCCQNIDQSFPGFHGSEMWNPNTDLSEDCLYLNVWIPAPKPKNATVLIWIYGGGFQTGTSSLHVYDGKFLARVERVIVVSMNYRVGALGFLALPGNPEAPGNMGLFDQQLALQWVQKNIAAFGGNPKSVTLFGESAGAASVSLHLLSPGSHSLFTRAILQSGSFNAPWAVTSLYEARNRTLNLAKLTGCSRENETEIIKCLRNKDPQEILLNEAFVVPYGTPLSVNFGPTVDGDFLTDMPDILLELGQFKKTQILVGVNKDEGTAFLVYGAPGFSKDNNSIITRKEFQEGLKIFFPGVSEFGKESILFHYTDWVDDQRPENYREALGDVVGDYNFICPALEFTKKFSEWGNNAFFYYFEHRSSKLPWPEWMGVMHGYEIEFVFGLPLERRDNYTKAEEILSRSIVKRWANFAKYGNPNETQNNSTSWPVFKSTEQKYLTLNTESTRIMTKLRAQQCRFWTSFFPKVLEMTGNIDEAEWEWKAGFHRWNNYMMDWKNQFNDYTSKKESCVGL
Chain of hAChE (P22303 32-614): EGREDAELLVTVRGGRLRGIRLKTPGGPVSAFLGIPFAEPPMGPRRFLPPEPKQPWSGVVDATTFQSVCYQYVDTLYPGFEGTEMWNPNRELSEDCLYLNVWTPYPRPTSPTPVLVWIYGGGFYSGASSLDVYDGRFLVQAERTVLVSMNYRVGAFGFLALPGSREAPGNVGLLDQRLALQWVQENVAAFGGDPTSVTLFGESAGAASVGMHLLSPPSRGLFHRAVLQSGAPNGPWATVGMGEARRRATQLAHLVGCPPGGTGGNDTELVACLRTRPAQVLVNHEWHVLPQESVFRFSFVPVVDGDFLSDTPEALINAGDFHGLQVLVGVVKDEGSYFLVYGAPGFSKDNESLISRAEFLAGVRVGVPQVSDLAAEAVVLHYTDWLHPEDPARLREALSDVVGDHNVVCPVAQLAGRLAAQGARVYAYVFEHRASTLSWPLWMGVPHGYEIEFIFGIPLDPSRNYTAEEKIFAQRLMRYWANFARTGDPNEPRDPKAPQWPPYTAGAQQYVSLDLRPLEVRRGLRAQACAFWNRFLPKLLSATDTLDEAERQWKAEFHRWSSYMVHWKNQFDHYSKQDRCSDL
T1 sequence (P06276 29-602): as the sequence (P06276 29-602) above

CN(C)CCNC(=O)c1cc2c(cnn2CC2CCCCC2)cc1Cc1ccc(F)cc1F [Compound 95, 1-(Cyclohexylmethyl)-5-(2,4-difluorobenzyl)-N-(2-(dimethylamino)ethyl)-1H-indazole-6-carboxamide]
RA @ 1000nM [1]: 100%
RA @ 10000nM [1]: 100%
RA @ 1000nM [2]: 84%
RA @ 10000nM [2]: 83%
hBChE inhibition in SH-SY5Y human neuroblastoma cell line [3]: outperformed the control ethopropazine
RA @ 1000nM [4]: 100%
RA @ 10000nM [4]: 100%
RA @ 1000nM [5]: 93%
RA @ 10000nM [5]: 80%
RA @ 1000nM [6]: 100%
RA @ 10000nM [6]: 80%
RA @ 1000nM [7]: 100%
RA @ 10000nM [7]: 27%
RA @ 1000nM [8]: 92%
RA @ 10000nM [8]: 97%
RA @ 1000nM [9]: 98%
RA @ 10000nM [9]: 100%
RA @ 1000nM [10]: 90%
RA @ 10000nM [10]: 90%
RA @ 1000nM [11]: 77%
RA @ 10000nM [11]: 75%
AUC0‑∞ ([12]; brain, 10 mg/kg i.p., mice): 51082.15 ng·min/mL(g)
AUC0–t ([12]; brain, 10 mg/kg i.p., mice): 49811.92 ng·min/mL(g)
t0.5λz ([12]; brain, 10 mg/kg i.p., mice): 89.51 min
Cmax ([12]; brain): 343 ng/g
MRT ([12]; brain): 128 min
Tmax ([12]; brain): 15 min
k el ([12]; brain): 0.000128 s⁻¹
Kp [12]: 0.83
AUC ([12]; serum): 1030 ng·h/mL
AUC(0-t) ([12]; serum): 999 ng·h/mL
CL/F ([12]; serum): 160 mL/min/kg
Cmax ([12]; serum): 617 ng/mL
MRT ([12]; serum): 118 min
Tmax ([12]; serum): 15 min
Vd/F ([12]; serum): 23.4 L/kg
k el ([12]; serum): 0.000115 s⁻¹
t0.5λz ([12]; serum, 10 mg/kg i.p., mice): 100.15 min
RA @ 1000nM [13]: 100%
RA @ 10000nM [13]: 100%
RA @ 1000nM [14]: 100%
RA @ 10000nM [14]: 100%
AChE inhibition [15]: did not inhibit AChE
hAChE RA at 100 μM [15]: 53.4% and 53 ± 1% and 53.4 ± 0.8%
RA @ 1000nM [16]: 90%
RA @ 10000nM [16]: 100%
efficacy in NOR task [17]: statistically ineffective
preference for the novel object (NOR task) [17]: statistically significant preference for the novel object
IC50 [18, 40]: 772 ± 57 nM
IC50 [18, 41]: 770 nM
RA @ 1000nM [19]: 94%
RA @ 10000nM [19]: 100%
motor adverse effects (locomotor activity test) [20]: no motor adverse effects
RA @ 1000nM [21]: 96%
RA @ 10000nM [21]: 90%
RA @ 1000nM [22]: 96%
RA @ 10000nM [22]: 94%
RA @ 1000nM [23]: 100%
RA @ 10000nM [23]: 100%
RA @ 1000nM [24]: 100%
RA @ 10000nM [24]: 98%
RA @ 1000nM [25]: 100%
RA @ 10000nM [25]: 81%
RA @ 1000nM [26]: 100%
RA @ 10000nM [26]: 100%
RA @ 1000nM [27]: 88%
RA @ 10000nM [27]: 100%
RA @ 1000nM [28]: 100%
RA @ 10000nM [28]: 87%
RA @ 1000nM [29]: 100%
RA @ 10000nM [29]: 100%
RA @ 1000nM [30]: 100%
RA @ 10000nM [30]: 94%
RA @ 1000nM [31]: 100%
RA @ 10000nM [31]: 100%
motor adverse effects (rotarod test) [32]: no motor adverse effects
RA @ 1000nM [33]: 95%
RA @ 10000nM [33]: 100%
RA @ 1000nM [34]: 48%
RA @ 10000nM [34]: 3.7%
RA @ 1000nM [35]: 72%
RA @ 10000nM [35]: 91%
RA @ 1000nM [36]: 87%
RA @ 10000nM [36]: 79%
RA @ 1000nM [37]: 100%
RA @ 10000nM [37]: 100%
RA @ 1000nM [38]: 100%
RA @ 10000nM [38]: 93%
RA @ 1000nM [39]: 84%
RA @ 10000nM [39]: 81%

CC(C)Cn1ncc2cc(Cc3ccc(F)cc3F)c(C(=O)NCCN(C)C)cc21 [Compound 94, 5-(2,4-Difluorobenzyl)-N-(2-(dimethylamino)ethyl)-1-isobutyl-1H-indazole-6-carboxamide]
RA @ 1000nM [1]: 100%
RA @ 10000nM [1]: 98%
RA @ 1000nM [2]: 97%
RA @ 10000nM [2]: 89%
hBChE inhibition in SH-SY5Y human neuroblastoma cell line [3]: outperformed the control ethopropazine
RA @ 1000nM [4]: 100%
RA @ 10000nM [4]: 100%
RA @ 1000nM [5]: 89%
RA @ 10000nM [5]: 89%
RA @ 1000nM [6]: 91%
RA @ 10000nM [6]: 97%
RA @ 1000nM [7]: 77%
RA @ 10000nM [7]: 41%
RA @ 1000nM [8]: 86%
RA @ 10000nM [8]: 85%
RA @ 1000nM [9]: 98%
RA @ 10000nM [9]: 74%
RA @ 1000nM [10]: 85%
RA @ 10000nM [10]: 97%
RA @ 1000nM [11]: 71%
RA @ 10000nM [11]: 88%
elimination half-life in brain compared to serum ([12]; 10 mg/kg i.p., mice): over 2 fold
AUC0‑∞ ([12]; brain, 10 mg/kg i.p., mice): 50863.30 ng·min/mL(g)
AUC0–t ([12]; brain, 10 mg/kg i.p., mice): 48459.19 ng·min/mL(g)
t0.5λz ([12]; brain, 10 mg/kg i.p., mice): 210.94 min
Cmax ([12]; brain): 658 ng/g
MRT ([12]; brain): 102 min
Tmax ([12]; brain): 15 min
k el ([12]; brain): 5.5e-05 s⁻¹
Kp [12]: 1.58
AUC ([12]; serum): 536 ng·h/mL
AUC(0-t) ([12]; serum): 532 ng·h/mL
CL/F ([12]; serum): 310 mL/min/kg
Cmax ([12]; serum): 946 ng/mL
MRT ([12]; serum): 53.8 min
Tmax ([12]; serum): 5 min
Vd/F ([12]; serum): 46 L/kg
k el ([12]; serum): 0.000112 s⁻¹
AUC0–t ratio compound 94 to compound 95 ([12]; serum, 10 mg/kg i.p., mice): 0.53
t0.5λz ([12]; serum, 10 mg/kg i.p., mice): 102.50 min
RA @ 1000nM [13]: 100%
RA @ 10000nM [13]: 100%
RA @ 1000nM [14]: 100%
RA @ 10000nM [14]: 100%
AChE inhibition [15]: did not inhibit AChE
hAChE RA at 100 μM [15]: 69.0% and 69 ± 4%
RA @ 1000nM [16]: 100%
RA @ 10000nM [16]: 100%
efficacy in NOR task [17]: statistically ineffective
preference for the novel object (NOR task) [17]: statistically significant preference for the novel object
IC50 [18, 40]: 652 ± 112 nM
IC50 [18, 41]: 651 nM
RA @ 1000nM [19]: 100%
RA @ 10000nM [19]: 97%
motor adverse effects (locomotor activity test) [20]: no motor adverse effects
RA @ 1000nM [21]: 87%
RA @ 10000nM [21]: 87%
RA @ 1000nM [22]: 94%
RA @ 10000nM [22]: 100%
RA @ 1000nM [23]: 100%
RA @ 10000nM [23]: 100%
RA @ 1000nM [24]: 96%
RA @ 10000nM [24]: 93%
RA @ 1000nM [25]: 100%
RA @ 10000nM [25]: 100%
RA @ 1000nM [26]: 100%
RA @ 10000nM [26]: 100%
RA @ 1000nM [27]: 100%
RA @ 10000nM [27]: 97%
RA @ 1000nM [28]: 88%
RA @ 10000nM [28]: 74%
RA @ 1000nM [29]: 100%
RA @ 10000nM [29]: 100%
RA @ 1000nM [30]: 95%
RA @ 10000nM [30]: 100%
RA @ 1000nM [31]: 100%
RA @ 10000nM [31]: 100%
motor adverse effects (rotarod test) [32]: no motor adverse effects
RA @ 1000nM [33]: 100%
RA @ 10000nM [33]: 85%
RA @ 1000nM [34]: 55%
RA @ 10000nM [34]: 6.8%
RA @ 1000nM [35]: 93%
RA @ 10000nM [35]: 90%
RA @ 1000nM [36]: 96%
RA @ 10000nM [36]: 92%
RA @ 1000nM [37]: 100%
RA @ 10000nM [37]: 100%
RA @ 1000nM [38]: 100%
RA @ 10000nM [38]: 94%
RA @ 1000nM [39]: 81%
RA @ 10000nM [39]: 90%
